Laboratory results: patent US20050282743A1, “Molecular interactions in cells” (Arbor Vita Corporation, priority 2001, published 2005)
Ends that are not written are not given here. Peptide text beside a SMILES is read from it. * marks the point of attachment. Biotin = O=C1N[C@H]2[C@H](CS[C@H]2CCCCC(=O)*)N1

What follows are molecules tested against T1, PDZ protein (GST-PDZ fusion) (Homo sapiens, UniProt Q99767) (assay: G' assay (10 uM PL peptide), results of TABLE 7 and TABLE 12). Settings: PDZ X11-beta, PDZ Domain 1.
T1 construct: made in house; host or cells: E. coli (DH5alpha, BL21 or JM109)
T1 sequence (Q99767 1-749): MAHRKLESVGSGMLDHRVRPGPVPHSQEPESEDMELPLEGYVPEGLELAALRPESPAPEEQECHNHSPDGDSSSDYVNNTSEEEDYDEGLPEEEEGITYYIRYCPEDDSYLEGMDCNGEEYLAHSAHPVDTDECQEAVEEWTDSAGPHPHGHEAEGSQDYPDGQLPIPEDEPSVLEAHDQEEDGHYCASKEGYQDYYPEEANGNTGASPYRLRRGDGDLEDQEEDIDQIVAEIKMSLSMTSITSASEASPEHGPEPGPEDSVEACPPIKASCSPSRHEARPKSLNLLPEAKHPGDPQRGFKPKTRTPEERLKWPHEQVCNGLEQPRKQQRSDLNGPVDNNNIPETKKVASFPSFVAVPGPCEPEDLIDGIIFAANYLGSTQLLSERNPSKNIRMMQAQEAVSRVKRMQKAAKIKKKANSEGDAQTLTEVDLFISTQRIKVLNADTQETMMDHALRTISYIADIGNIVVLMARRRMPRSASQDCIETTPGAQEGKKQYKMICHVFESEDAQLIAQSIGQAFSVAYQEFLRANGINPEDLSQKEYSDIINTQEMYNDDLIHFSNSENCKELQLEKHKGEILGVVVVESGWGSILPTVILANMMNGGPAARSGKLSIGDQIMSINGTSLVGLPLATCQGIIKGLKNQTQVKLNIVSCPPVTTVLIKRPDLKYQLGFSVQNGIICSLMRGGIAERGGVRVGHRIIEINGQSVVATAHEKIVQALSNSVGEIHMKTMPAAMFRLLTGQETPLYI
Format: binding
Outline: (§1)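 Same steps as the G-zero format, apart from a peptide concentration of 10 uM in place of 20 uM in step 2. Amino-terminally biotinylated PL peptides bind GST-PDZ fusions, and retained peptide is quantified by 450 nm absorbance.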
With “A2AA_HUMAN (modified) (Biotin-HDFRRAFKKILARGDRKRIV; not fully specified)” the Classification was 2 (A450 nm 1-2).

Same assay, conditions: PDZ X11-beta, PDZ Domain 2
In the case of “ELLQFCRTPNPALKNGQYWV (Biotin-ELLQFCRTPNPALKNGQYWV)”, the Classification is reported as 2 (A450 nm 1-2). With “ALVLIAFCIIRRRPSAYQAL (Biotin-ALVLIAFCIIRRRPSAYQAL) [CD68]” the Classification was 1 (A450 nm 0-1). With “A2AA_HUMAN (modified) (Biotin-HDFRRAFKKILARGDRKRIV; not fully specified)” the Classification was 1 (A450 nm 0-1).

These molecules were tested against T2, PDZ protein (GST-PDZ fusion) (Homo sapiens, UniProt Q9UPQ7) in the same assay as above. Settings: PDZ KIAA1095, PDZ Domain 1.
T2 construct: made in house; host or cells: E. coli (DH5alpha, BL21 or JM109)
T2 sequence (Q9UPQ7 1-1066): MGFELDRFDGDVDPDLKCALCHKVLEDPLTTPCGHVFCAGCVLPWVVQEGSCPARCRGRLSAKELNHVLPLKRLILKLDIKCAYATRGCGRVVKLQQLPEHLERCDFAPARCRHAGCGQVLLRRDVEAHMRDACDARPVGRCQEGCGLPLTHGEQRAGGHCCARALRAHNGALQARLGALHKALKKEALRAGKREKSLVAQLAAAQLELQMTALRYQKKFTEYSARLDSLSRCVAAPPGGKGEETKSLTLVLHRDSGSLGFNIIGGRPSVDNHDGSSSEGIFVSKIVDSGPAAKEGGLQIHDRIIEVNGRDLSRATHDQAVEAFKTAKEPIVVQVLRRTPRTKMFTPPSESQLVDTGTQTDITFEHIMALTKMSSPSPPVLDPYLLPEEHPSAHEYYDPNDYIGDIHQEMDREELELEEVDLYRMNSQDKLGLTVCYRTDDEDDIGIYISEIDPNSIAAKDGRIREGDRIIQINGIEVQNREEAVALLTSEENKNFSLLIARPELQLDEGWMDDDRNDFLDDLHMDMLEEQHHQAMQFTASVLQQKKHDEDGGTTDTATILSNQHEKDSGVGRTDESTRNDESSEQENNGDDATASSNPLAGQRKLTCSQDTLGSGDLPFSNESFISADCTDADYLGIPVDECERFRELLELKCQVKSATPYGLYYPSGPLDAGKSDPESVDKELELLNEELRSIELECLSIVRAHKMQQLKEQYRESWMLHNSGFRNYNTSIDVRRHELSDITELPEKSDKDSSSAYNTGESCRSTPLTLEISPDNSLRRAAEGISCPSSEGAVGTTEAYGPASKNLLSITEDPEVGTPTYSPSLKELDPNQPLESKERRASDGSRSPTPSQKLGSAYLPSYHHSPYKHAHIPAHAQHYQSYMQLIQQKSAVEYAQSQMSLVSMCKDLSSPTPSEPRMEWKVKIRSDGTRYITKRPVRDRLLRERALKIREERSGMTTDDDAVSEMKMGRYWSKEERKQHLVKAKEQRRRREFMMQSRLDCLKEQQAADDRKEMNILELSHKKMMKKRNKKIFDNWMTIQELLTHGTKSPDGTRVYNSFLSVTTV
Format: binding
Outline: as §1
For `CC(C)C[C@H](NC(=O)[C@H](C)NC(=O)[C@@H](NC(=O)[C@H](CCC(=O)O)NC(=O)[C@H](CCCNC(=N)N)NC(=O)[C@H](CCCNC(=N)N)NC(=O)CNC(=O)[C@H](CCC(N)=O)NC(=O)[C@H](CC(C)C)NC(=O)[C@H](CCCNC(=N)N)NC(=O)CNC(=O)CNC(=O)[C@H](CCCNC(=N)N)NC(=O)[C@H](C)NC(=O)[C@H](CO)NC(=O)[C@H](CCCNC(=N)N)NC(=O)CNC(=O)CNC(=O)[C@H](C)NC(=O)[C@H](C)NC(=O)CCCC[C@@H]1SC[C@@H]2NC(=O)N[C@@H]21)[C@@H](C)O)C(=O)O` [HPV E6 33 (modified)] (Biotin-AAGGRSARGGRLQGRRETAL-OH; C-terminus assumed), the Classification was 5 (A450 nm of 4 more than 2× repeated). `CSCC[C@H](NC(=O)[C@H](C)NC(=O)[C@H](CCCNC(=N)N)NC(=O)CNC(=O)[C@@H](NC(=O)[C@H](Cc1c[nH]c2ccccc12)NC(=O)[C@H](CCCNC(=N)N)NC(=O)CNC(=O)CCCC[C@@H]1SC[C@@H]2NC(=O)N[C@@H]21)[C@@H](C)O)C(=O)N[C@@H](CO)C(=O)N[C@@H](C)C(=O)N[C@@H](Cc1c[nH]c2ccccc12)C(=O)N[C@@H](CCCCN)C(=O)N1CCC[C@H]1C(=O)N[C@H](C(=O)N[C@@H](CCCNC(=N)N)C(=O)N[C@@H](CCCNC(=N)N)C(=O)N[C@@H](CCC(=O)O)C(=O)N[C@H](C(=O)N[C@@H](CCC(=O)O)C(=O)N[C@H](C(=O)O)C(C)C)[C@@H](C)O)[C@@H](C)O` [HPV E6 #35 (modified)] (Biotin-GRWTGRAMSAWKPTRRETEV-OH; C-terminus assumed) was tested, and the Classification was 4 (A450 nm 3-4). For TQGFPGPATWRRISSLESEV, the Classification was 1 (A450 nm 0-1). With `CC(C)C[C@H](NC(=O)[C@H](CCCNC(=N)N)NC(=O)CNC(=O)CNC(=O)[C@H](CCCNC(=N)N)NC(=O)[C@H](C)NC(=O)[C@@H]1CCCN1C(=O)[C@H](CCCNC(=N)N)NC(=O)CNC(=O)CNC(=O)[C@@H](NC(=O)[C@H](C)NC(=O)CCCC[C@@H]1SC[C@@H]2NC(=O)N[C@@H]21)C(C)C)C(=O)N[C@@H](CCC(N)=O)C(=O)NCC(=O)N[C@@H](CCCNC(=N)N)C(=O)N[C@@H](CCCNC(=N)N)C(=O)N[C@@H](CCC(N)=O)C(=O)N[C@H](C(=O)N[C@@H](CCC(N)=O)C(=O)N[C@H](C(=O)O)C(C)C)[C@@H](C)O` [HPV E6 58 (modified)] (Biotin-AVGGRPARGGRLQGRRQTQV-OH; C-terminus assumed) the Classification was 1 (A450 nm 0-1). With `CC[C@H](C)[C@H](NC(=O)CNC(=O)[C@H](CO)NC(=O)[C@H](Cc1ccccc1)NC(=O)[C@@H](NC(=O)[C@H](CS)NC(=O)CNC(=O)CNC(=O)[C@H](C)NC(=O)[C@@H]1CCCN1C(=O)[C@@H](NC(=O)[C@@H]1CCCN1C(=O)CCCC[C@@H]1SC[C@@H]2NC(=O)N[C@@H]21)[C@@H](C)CC)[C@@H](C)O)C(=O)N[C@@H](Cc1ccccc1)C(=O)N1CCC[C@H]1C(=O)N[C@H](C(=O)N[C@@H](CC(C)C)C(=O)N[C@H](C(=O)N[C@@H](CO)C(=O)N1CCC[C@H]1C(=O)N[C@@H](CC(C)C)C(=O)O)[C@@H](C)O)[C@@H](C)O` [KIA 1481] (Biotin-PIPAGGCTFSGIFPTLTSPL-OH; C-terminus assumed) the Classification was 1 (A450 nm 0-1).
